Measured values reported in article PMC8869097, “Benzothiazole Derivatives as Multifunctional Antioxidant Agents for Skin Damage: Structure–Activity Relationship of a Scaffold Bearing a Five-Membered Ring System” (Antioxidants, 2022).
Values after ≈ are worked out from the molar mass of the structure shown.

Legend:
Microsporum gypseum = experiment: Antidermatophyte activity, plaque growth inhibition; type: cell-based, Microsporum gypseum CBS 130,948; conditions: Nannizzia gypsea; 100 μg/mL, SDA; read-out: % Inhibition Growth M. gypseum
Protocol: (§1) The dermatophytes used in this study were Epidermophyton floccosum var. floccosum (Netherlands) CBS 358.93 strain, Trichophyton tonsurans (Netherlands) CBS 483.76 strain, Trichophyton mentagrophytes (Netherlands) CBS 160.66 strain, Microsporum canis (Iran) CBS 131,110 strain, and Microsporum gypseum (Iran) CBS 130,948 strain. All dermatophytes were maintained at 4 °C as agar slants on SDA. Candida albicans (ATCC 10231) was maintained at 4 °C on SDA plate.
(§2) The in vitro antifungal activity against the five selected dermatophytes was evaluated, as previously described, using the plaque growth inhibition method. All compounds were evaluated at the final concentration of 100 µg/mL. The percentages of growth inhibition according to Equation (5) were calculated as the average of three different experiments. I = [(C − T)/C] × 100%,(5) where I is the percentage value of growth inhibition, C is the measure of the diameter of the control circular mycelial inoculum (mm) and T is the extended diameter of the treated mycelial inoculum (mm).
(§3) All synthesized benzothiazole derivatives were evaluated to evaluate their in vitro antifungal activity against the five pathogenic dermatophytes that cause the most common dermatomycoses: Microsporum gypseum, Microsporum canis, Trichophyton mentagrophytes, Trichophyton tonsurans and Epidermophyton floccosum. All compounds were tested at a concentration of 100 µg/mL in DMSO, to evaluate the ability to inhibit the growth of dermatophyte cultures in Sabouraud Dextrose Agar (SDA). Briefly, room temperature incubation was performed and dermatophyte inhibition assessed by measuring the colony diameter at each disc for 7 days. The results are shown in Table 3 and were determined as the average of three different experiments.

Microsporum canis = experiment: as above; type: cell-based, Microsporum canis CBS 131,110; conditions: 100 μg/mL, SDA, read-out: % Inhibition Growth M. canis
Protocol: as §1, §2, §3

[1] = tested on: Trichophyton mentagrophytes; experiment: as above; type: cell-based, Trichophyton mentagrophytes CBS 160.66; conditions: 100 μg/mL, SDA, read-out: % Inhibition Growth T. mentagrophytes
Protocol: as §1, §2, §3

Trichophyton tonsurans = experiment: as above; type: cell-based, Trichophyton tonsurans CBS 483.76; conditions: 100 μg/mL, SDA, read-out: % Inhibition Growth T. tonsurans
Protocol: as §1, §2, §3

Epidermophyton floccosum = experiment: as above; type: cell-based, Epidermophyton floccosum var. floccosum CBS 358.93; conditions: 100 μg/mL, SDA, read-out: % Inhibition Growth E. floccosum
Protocol: as §1, §2, §3

[2] = tested on: Candida albicans (ATCC 10231); experiment: Anti-Candida albicans activity, broth microdilution MIC; type: cell-based; conditions: Candida albicans, ATCC10231; 24 h of incubation
Protocol: as §1
The suspension of Candida albicans consists of the dispersion of an aliquot in 5 mL of sterilized water. The compounds and fluconazole, used as a positive control, were solubilized in DMSO (12.80 mg/mL) as stock solutions. Minimum inhibitory concentration (MIC) was performed by the broth microdilution method according to the approved standard M27-A3, 2008 [NCCLS] of the Clinical and Laboratory Standards Institute/National Committee for Clinical Laboratory Standards (CLSI/NCCLS), as described previously.
Candida is a strain of fungi known to transmit infections to different parts of the human body, including the skin [43], which is why the synthesized compounds have also been tested against Candida Albicans (ATCC 10231). For each of them the minimum inhibitory concentration (MIC) was determined by the broth microdilution method using RPMI 1640 + MOPS as culture medium. […] Fluconazole was used as a positive control drug. […] Similarly to the results observed on dermatophytes, therefore, the unsubstituted compounds in position 6 of benzimidazole gave activity on yeasts, except for compound 8a.

MIC [2]: 0.5 µg/mL (≈ 1.63 µM)
SMILES: OC(Cn1cncn1)(Cn1cncn1)c1ccc(F)cc1F [Fluconazole, reference compound]
inhibition at 100 µg/mL (Microsporum gypseum): 18.2 ± 0.9%
inhibition at 100 µg/mL (Microsporum canis): 30.1 ± 0.4%
inhibition at 100 µg/mL [1]: 3.75 ± 0.24%
inhibition at 100 µg/mL (Trichophyton tonsurans): 18.7 ± 0.62%
inhibition at 100 µg/mL (Epidermophyton floccosum): 0.12 ± 0.004%
